# Assay results reported in patent US4866161A, “Inhibition of tartar deposition by polyanionic/hydrophobic peptides and derivatives thereof which have a clustered block copolymer structure” (University of South Alabama, priority 1987, dated 1989).
# Where two headings read alike, the source gives them in different places. Ends that are not written are not given here.
# Assays:
# [1] = inhibitor 37 μg/ml; adapted from Hay et al. 1979; cited from earlier work
# [2] = pH-drift assay, calcium carbonate
# Description: A solution supersaturated with respect to CaCO03 is prepared by separately pipetting 0.3 ml of 1.0 M CaCl2 dihydrate and 0.6 ml of 0.5 M NaHCO3 into 29.1 ml of artificial seawater (0.5 NaCl, 0.011 M KCl). The reaction vessel is a 50 ml, 3-necked, round-bottom flask partially immersed in a thermostated water bath at 20° C. The reaction vessel is closed to the atmosphere to minimize exchange of CO2 The reaction is started by adjusting the pH upward to 8.3 by titration of μl amounts of 1 N NaOH by digital pipette. The initial concentrations are 10 mM each of Ca^2+ and dissolved inorganic carbon (DIC). The reaction is monitored by pH electrode and recorded by strip chart.
# The reaction may be quantified by calculations based on DIC equilibria to give the amount of precipitation versus time.
# The conditions of the assay were […] dissolved inorganic carbon at 20° C. and 30 ml of artificial seawater (0.5 M NaCl, 0.01 M KCl).
# [3] = pH-drift assay, calcium phosphate
# Description: A solution supersaturated with respect to calcium phosphate is prepared by separately pipetting 0.1 ml of 1.32 M CaCl2 dihydrate and 0.1 ml of 0.90 M NaHl PO4 into 29.8 ml of distilled water. This yields initial concentrations of 4.4 mM Ca^2+ and 3.0 mM dissolved inorganic phosphorus (DIP). The reaction vessel is a 50 ml, round-bottom, 3-necked flask partially immersed in a thermostated water bath at 20° C. The reaction vessel is closed to the atmosphere. The reaction begins upon mixing the reactants with an initial pH of 7.4.
# Amorphous calcium phosphate (ACP) nucleates immediately and slowly grows as indicated by a slight decrease in pH during the first 30 minutes or so of the assay. Following this, ACP begins to transform to calcium hydroxylapatite (HAP), Ca10 (PO4)6 (OH)2, as indicated by a marked acceleration in the downward pH drift. The reaction ceases as reactants are depleted and the pH is lowered.
# ^1 Assay Conditions: Ca at 4.4 mM, dissolved inorganic phosphorus at […]
# [4] = constant composition assay, CaCO3; settings: FIG. 5, pH 8.30 held constant, 20° C., doses matched for about 2 hours stabilization
# Description: A 50 ml solution of 10 mM CaCl2 and 10 mM dissolved inorganic carbon (DIC) was adjusted to pH 8.34 by digital pipetting of μl amounts of 1 N NaOH. The temperature was held constant at 20° C. using a water-jacketed reaction vessel and a thermostated bath. After about a 6 minute period during which CaCO3 nucleation occurs, the pH beings to drift downward as Ca^2+ and CO3^2- ions are removed from solution as solid crystals. At pH 8.30, inhibitors were added which stabilized the pH drift for certain periods of time. The concentrations of inhibitors used in the experiments shown in FIG. 5 were matched so that the amount of stabilization or inhibition of nucleation was the same, in this case about 2 hours. The doses required for this effect ranged between 0.1 to 0.5 μg/ml of inhibitor depending on the type When crystallization began again, the pH would drift downward. However, it was held constant at pH 8.30±0.02 by automatic titration of 0.5 M CaCl2 and 0.5 M NaCO3 from separate burettes linked via the pH electrode to a computer-assisted titrimeter.
compound,measurement,setting,value
"Statherin: salivary protein, most effective inhibitor among salivary proteins that regulate mineral deposition in the oral cavity (DSSEEKFLRRIGRFGYGYGPYQPVPEQPLYPQPYQPQYQQYTF; UniProt P02808 20-62, looked up)",PERIOD OF ACP FORMATION,[1],48 min
same,"pH/min, ACP FORMATION",[1],0.0045 pH/min
same,"pH/min, APATITE FORMATION",[1],0.0090 pH/min
GSDGSDGSDGSDGSDGSDGSD [H--(GLY--SER--ASP)7 --OH],CRYSTAL GROWTH RATE,[2]; peptide 0.1 μg/ml,0.057 ± 0.0034 pH/MIN
same,INDUCTION PERIOD,[2]; peptide 0.1 μg/ml,5.83 ± 1.04 min
"O=P(O)(O)CN(CCN(CP(=O)(O)O)CP(=O)(O)O)CCN(CP(=O)(O)O)CP(=O)(O)O [DENTPP, diethylene triamine pentamethylene phosphonic acid]",PERIOD OF ACP FORMATION,[3]; inhibitor 5 μg/ml,100 min
same,"pH/min, ACP FORMATION",[3]; inhibitor 5 μg/ml,0.0012 pH/min
same,"pH/min, APATITE FORMATION",[3]; inhibitor 5 μg/ml,0.019 pH/min
GDGDGDGDGDGDGDGDGDGD [H--(GLY--ASP)10 --OH],CRYSTAL GROWTH RATE,[2]; peptide 0.1 μg/ml,0.047 ± 0.0097 pH/MIN
same,INDUCTION PERIOD,[2]; peptide 0.1 μg/ml,36.0 ± 5.20 min
SDSDSDSDSDSDSDSDSDSD [H--(SER--ASP)10 --OH],CRYSTAL GROWTH RATE,[2]; peptide 0.1 μg/ml,0.048 ± 0.0040 pH/MIN
same,INDUCTION PERIOD,[2]; peptide 0.1 μg/ml,29.8 ± 4.99 min
"DDDDDDDDDDDDDDDDDDDD [H--(ASP)20--OH, poly (Asp)20]",CRYSTAL GROWTH RATE,[2]; peptide 0.02 μg/ml,0.047 ± 0.0030 pH/MIN
same,INDUCTION PERIOD,[2]; peptide 0.02 μg/ml,21.5 ± 0.50 min
same,CRYSTAL GROWTH RATE,[2]; peptide 0.035 μg/ml,0.041 ± 0.0050 pH/MIN
same,INDUCTION PERIOD,[2]; peptide 0.035 μg/ml,39.2 ± 10.8 min
same,INDUCTION PERIOD,[2]; peptide 0.050 μg/ml,> 180 min
"AAAAAAGDGDGDGDGDGDGD [H--(ALA)6 --(GLY-13 ASP)7 --OH, poly (Asp-Gly)7 (Ala)6]","inhibition of crystal nucleation (duration of induction period), in words","[2]; FIG. 6, equal doses, artificial seawater, 20° C.",very little activity relative to the control curve
same,CRYSTAL GROWTH RATE,[2]; peptide 0.20 μg/ml,0.048 ± 0.0042 pH/MIN
same,INDUCTION PERIOD,[2]; peptide 0.20 μg/ml,7.2 ± 0.83 min
"Polyaspartate [Polyaspartate, MW 15,000]","pH/min, ACP FORMATION",[3]; inhibitor 10 μg/ml,0.0040 pH/min
same,"pH/min, APATITE FORMATION",[3]; inhibitor 10 μg/ml,0.106 pH/min
same,PERIOD OF ACP FORMATION,"[3]; inhibitor 10 μg/ml, Ca 4.4 mM, DIP 3.0 mM, initial pH 7.40, 20° C.",30 min
same,PERIOD OF ACP FORMATION,[3]; inhibitor 15 μg/ml,48 min
same,"pH/min, ACP FORMATION",[3]; inhibitor 15 μg/ml,0.0050 pH/min
same,"pH/min, APATITE FORMATION",[3]; inhibitor 15 μg/ml,0.070 pH/min
H--(ALA)10 (ASP)15 --OH,CRYSTAL GROWTH RATE,[2]; peptide 0.050 μg/ml,0.042 ± 0.0039 pH/MIN
same,INDUCTION PERIOD,[2]; peptide 0.050 μg/ml,32.0 ± 10.4 min
AAAAAAAAAADDDDDDDDDD [H--(Ala)10 --(Asp)10 --OH],"inhibitory activity on CaCO3 crystallization, comparison of Table 1 in words",[2]; Table 1,decreased activity
Polyaspartate [matrix analog],rate of crystallization after the period of stabilization,[4],not observed
